ChEMBL document CHEMBL5233268, “Application of marine natural products in drug research” (Bioorg Med Chem, 2021)
Values after ≈ are worked out from the molar mass of the structure shown.

Legend:
5'-nucleotidase = 5'-nucleotidase (Homo sapiens, UniProt P21589); experiment: Inhibition of human N-terminal Ecto-5'-nucleotidase
KB = experiment: Cytotoxicity against human KB cells assessed as inhibition of cell growth; assay type: functional, cell-based

5'-nucleotidase, sequence (P21589 whole entry): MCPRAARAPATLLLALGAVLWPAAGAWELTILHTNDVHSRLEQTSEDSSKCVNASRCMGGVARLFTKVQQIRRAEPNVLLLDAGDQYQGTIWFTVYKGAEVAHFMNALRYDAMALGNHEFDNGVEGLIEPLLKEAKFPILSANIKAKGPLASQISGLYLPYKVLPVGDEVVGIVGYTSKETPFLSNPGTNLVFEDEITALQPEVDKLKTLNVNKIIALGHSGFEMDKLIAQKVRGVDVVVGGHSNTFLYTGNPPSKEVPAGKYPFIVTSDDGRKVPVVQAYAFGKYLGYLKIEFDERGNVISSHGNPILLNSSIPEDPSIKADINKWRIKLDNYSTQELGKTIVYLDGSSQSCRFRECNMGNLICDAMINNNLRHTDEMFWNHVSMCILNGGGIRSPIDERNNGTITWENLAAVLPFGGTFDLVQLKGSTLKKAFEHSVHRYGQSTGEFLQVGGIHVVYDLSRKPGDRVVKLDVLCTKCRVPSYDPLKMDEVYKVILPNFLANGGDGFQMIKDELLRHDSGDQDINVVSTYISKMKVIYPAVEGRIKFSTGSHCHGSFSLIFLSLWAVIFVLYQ

SMILES: Nc1ncc(/C=C/CNC(=O)c2cc(Br)c(Br)[nH]2)[nH]1 [OROIDIN]
- IC50 (5'-nucleotidase): 1.6 µM

SMILES: Nc1ncc(/C=C/CNC(=O)c2ccc[nH]2)[nH]1 [CLATHRODIN]
- IC50 (5'-nucleotidase): 1.6 µM

SMILES: COc1ccc(C[C@H]2NC(=O)/C=C/C[C@@H]([C@H](C)[C@H]3O[C@@H]3c3ccccc3)OC(=O)[C@H](CC(C)C)OC(=O)CCNC2=O)cc1 [ARENASTATIN A]
- IC50 (KB): 0.005 ng/mL (≈ 0.00824 nM)
